The structures appear in SMILES notation. Like-named read-outs stand apart in the source and are kept apart here.

As usually defined, the IC50 is the midpoint of a concentration-inhibition curve.

Holding throughout (format): cell-based
One experiment relates to NALM-6 leukemia cells. Briefly: MTT cytotoxicity assay, NALM-6 leukemia cells. Particulars: Homo sapiens, 24-36 hours at 37° C. The procedure: (§1) Cytotoxicity of various compounds against tumor cells was performed using the MTT (3-[4,5-dimethylthiazol-2-yl]-2,5-diphenyl tetrazolium bromide) assay (Boehringer Mannheim Corp., Indianapolis, Ind.). Unless otherwise specified, all cell lines were obtained from the American Type Culture Collection (ATCC). Briefly, exponentially growing cells were seeded into a 96-well plate at a density of 2.5×10^4 cells/well and incubated for 36 hours at 37° C. prior to drug exposure. On the day of treatment, culture medium was carefully aspirated from the wells and replaced with fresh medium containing WHI-P239 at concentrations ranging from 0.1 to 250 μM. Triplicate wells were used for each treatment.
(§2) Human leukemic cell lines (NALM-6, MOLT-3), human breast tumor cells (BT20), prostate cancer cells (PC3), and glioblastoma cells (U373) were obtained from the American Type Culture Collection and maintained as a continuous cell line in Dulbecco's modified Eagles's medium supplemented with 10% fetal bovine serum and antibiotics.
(§3) The cells were incubated with the various compounds for 24-36 hours at 37° C. in a humidified 5% CO2 atmosphere. To each well, 10 μl of MTT (0.5 mg/ml final concentration) was added and the plates were incubated at 37° C. for 4 hours to allow MTT to form formazan crystals by reacting with metabolically active cells. The formazan crystals were solubilized overnight at 37° C. in a solution containing 10% SDS in 0.01 M HCl. The absorbence of each well was measured in a microplate reader (Labsystems) at 540 nm and a reference wavelength of […]. To translate the OD540 values into the number of live cells in each well, the OD540 values were compared to those on standard OD540 -versus-cell number curves generated for each cell line. The percent survival was calculated using the formula shown below. [formula]
On the technique in general: Tetrazolium dyes change colour on reduction, which living cells bring about.

Experiment [1] deals with BT-20 breast cancer cells. Briefly: MTT cytotoxicity assay, BT-20 breast cancer cells. Particulars: Homo sapiens, 24-36 hours at 37° C. The procedure:
as §1, §2, §3

In experiment [2] the test system is PC-3 prostate cancer cells. In words: MTT cytotoxicity assay, PC-3 prostate cancer cells. Particulars: 24-36 hours at 37° C. The procedure:
as §1, §2, §3

The test system of another experiment is U373 glioblastoma cells. In words: MTT cytotoxicity assay, U373 glioblastoma (brain tumor) cells. The settings on record: Homo sapiens, U373 MG, 24-36 hours at 37° C. The procedure:
as §1, §2, §3

As to `Oc1ccc(Nc2nc(Nc3ccc(O)cc3)nc(Nc3ccc(O)cc3)n2)cc1` [WHI-P199, 2,4,6-Tri(4'-hydroxylphenyl)-amino-1,3,5-triazine], the IC50 was > 250 µM in the experiment on NALM-6 leukemia cells (read-out: IC50 NALM-6 Leukemia), 240 µM in experiment [1], 221 µM in experiment [2] and > 250 µM with U373 glioblastoma cells.

For `Oc1c(Br)cc(Nc2nc(Nc3cc(Br)c(O)c(Br)c3)nc(Nc3cc(Br)c(O)c(Br)c3)n2)cc1Br` [WHI-P200, 2,4,6-Tri(3',5'-dibromo-4'-hydroxylphenyl)-amino-1,3,5-triazine], the IC50 is 10.1 µM with NALM-6 leukemia cells (read-out: IC50 NALM-6 Leukemia), 27.1 µM in experiment [1], 64.5 µM in experiment [2] and > 250 µM in the experiment with U373 glioblastoma cells.

As to `Oc1ccccc1Nc1nc(Nc2ccccc2O)nc(Nc2ccccc2O)n1` [WHI-P205, 2,4,6-Tri(2'-hydroxylphenyl)-amino-1,3,5-triazine], the IC50 was determined as 21.5 µM in the experiment on NALM-6 leukemia cells (read-out: IC50 NALM-6 Leukemia), 108 µM in experiment [1], 102 µM in experiment [2] and 224 µM in the experiment on U373 glioblastoma cells.

With `Brc1cccc(Nc2nc(Nc3cccc(Br)c3)nc(Nc3cccc(Br)c3)n2)c1` [WHI-P206, 2,4,6-Tri(3'-bromophenyl)-amino-1,3,5-triazine], the concentration for half-maximal inhibition (IC50) (with NALM-6 leukemia cells (read-out: IC50 NALM-6 Leukemia); in experiment [1]; in experiment [2]; in the experiment on U373 glioblastoma cells) was > 250 µM each time.

Regarding `Oc1cccc(Nc2nc(Nc3cccc(O)c3)nc(Nc3cccc(O)c3)n2)c1` [WHI-P233, 2,4,6-Tri(3'-hydroxylphenyl)-amino-1,3,5-triazine], the IC50 was 5.1 µM with NALM-6 leukemia cells (read-out: IC50 NALM-6 Leukemia); 5.1 µM in the experiment on NALM-6 leukemia cells (leukemia cells, read-out: IC50 antileukemic potency (unit printed EM)); 66.1 µM in experiment [1]; 45.1 µM in experiment [2]; 104 µM in the experiment with U373 glioblastoma cells.

Take `Oc1c(Cl)cc(Nc2nc(Nc3cc(Cl)c(O)c(Cl)c3)nc(Nc3cc(Cl)c(O)c(Cl)c3)n2)cc1Cl` [WHI-P239, 2,4,6-Tri(3',5'-dichloro-4'-hydroxylphenyl)-amino-1,3,5-triazine]: the IC50 is 9.8 µM in the experiment with NALM-6 leukemia cells (read-out: IC50 NALM-6 Leukemia), 13.2 µM in experiment [1], 31.5 µM in experiment [2] and 155 µM in the experiment with U373 glioblastoma cells.

These data come from US6262053A, “Melamine derivatives as potent anti-cancer agents” (Parker Hughes Institute, priority 1999, dated 2001).
